Experimental data taken from patent US20260224524A1, “A PHARMACEUTICAL COMPOSITION TARGETING MUTANT P53 AND HER2” (DR DOZO LABORATORIES, priority 2023, published 2026).
In brackets after ≈: the same amount, converted by molar mass. Read-outs that look alike come from different tables or passages of the source.

How the values were obtained:
Type in all cases: cell-based
[1] = tested on: Human Lung Cancer Cell Line A-549; experiment: Growth inhibition (% control growth, LC50, TGI, GI50) A-549; conditions: A-549
Procedure: The therapeutic effect of SA1 (peak 5) and SA2 (peak 4) is evaluated against human lung cancer cell line A-549 by calculating the percentage growth inhibition, drug concentration of test compound needed to inhibit cell growth by 50% (GI50) values.
The therapeutic effect of SACC is evaluated against human lung cancer cell line A-549 by calculating the percentage growth inhibition, drug concentration of test compound needed to inhibit cell growth by 50% (GI50) values.

[2] = tested on: Human Breast Cancer Cell Line MDA-MB-231; experiment: Growth inhibition (% control growth, LC50, TGI, GI50) MDA-MB-231
Procedure: The therapeutic effect of […] (peak 5) and SA2 (peak 4) is evaluated against human […] cancer cell line MDA-MB-231 by calculating the percentage growth inhibition, drug concentration of test compound needed to inhibit cell growth by 50% (GI50) values.
The therapeutic effect of SACC is evaluated against human […] cancer cell lines MDA-MB-231 by calculating the percentage growth inhibition, drug concentration of test compound needed to inhibit cell growth by 50% (GI50) values.

[3] = tested on: Human Pancreatic Cancer Cell Line Mia-Pa-Ca-2; experiment: Growth inhibition (% control growth, LC50, TGI, GI50) Mia-Pa-Ca-2; conditions: Mia-Pa-Ca-2
Procedure: The therapeutic effect of SA1 (peak 5) and SA2 (peak 4) is evaluated against human pancreatic cancer cell line Mia-Pa-Ca-2 by calculating the percentage growth inhibition, drug concentration of test compound needed to inhibit cell growth by 50% (GI50) values.
The therapeutic effect of SACC is evaluated against human […] cancer cell line Mia-Pa-Ca-2 by calculating the percentage growth inhibition, drug concentration of test compound needed to inhibit cell growth by 50% (GI50) values.

[4] = tested on: Human Breast Cancer Cell Line MDA-MB-231; experiment: Growth inhibition (% control growth, LC50, TGI, GI50) MDA-MB-231; conditions: Molar drug concentrations calculated from graph
A549 cell line [5] = experiment: Cytotoxicity MTT assay against A549; conditions: Homo sapiens; for inhibition at 1.563 µM / inhibition at 3.125 µM / inhibition at 6.25 µM / inhibition at 12.5 µM / inhibition at 25 µM / inhibition at 50 µM / inhibition at 100 µM: A549, A549
Procedure: For cytotoxicity studies, Test sample was considered as 100% stock and serial two-fold dilutions were prepared from 10% to 0.156% using F-12K plain media for treatment. 10 mM stock of Standard Doxorubicin was diluted from 100 μM to […] using F-12K plain media for treatment.
(§1) A549 cells were cultured in F-12K medium with appropriate supplements in a humidified atmosphere of 5% CO2 at 37° C. until confluent. The viability of the cells was checked using conventional hemocytometer. Appropriate cell density per ml of media was prepared and seeded in a 96 well plate and incubated for 24 h at 37° C. with 5% CO2 to assess the cell viability.
• 1. The cell count was adjusted to 5×10^5 cells/ml using complete media. To each well of the 96 well microtiter plate, 100 μl of the diluted cell suspension (50,000 cells/well) was added and incubated for 24 h at 37° C. in 5% CO2 atmosphere. • 2. After 24 h, the cells were treated with various concentrations of test compound and incubated at 37° C. for 24 h in 5% CO2 atmosphere. • 3. After incubation, the test solutions in the wells were discarded and 100 μl of MTT (5 mg/10 ml of MTT in PBS) was added to each well. The plates were incubated for 4 h at 37° C. in 5% CO2 atmosphere. • 4. The supernatants were removed and 100 μl of DMSO was added and the plates were gently shaken to solubilize the formed formazan. The absorbance was measured using a microplate reader at a wavelength of 590 nm. • 5.
% Inhibition=(OD of sample−OD of Control/OD of Control)×100

A549 cell line [6] = experiment: Cell viability test using trypan blue exclusion method against A549; conditions: Homo sapiens, 24 h
Procedure: For cytotoxicity studies, Test sample was considered as 100% stock and serial two-fold dilutions were prepared from 10% to 0.156% using F-12K plain media for treatment. 10 mM stock of Standard Doxorubicin was diluted from 100 μM to 1.56 μM using F-12K plain media for treatment.
as §1
• 1. The cell count was adjusted to 5×10^5 cells/ml using complete media. To each well of the 96 well microtiter plate, 100 μl of the diluted cell suspension (50,000 cells/well) was added and incubated for 24 h at 37° C. in 5% CO2 atmosphere. • 2. After 24 h, the cells were treated with various concentrations of test compound and incubated at 37° C. for 24 h in 5% CO2 atmosphere. • 3. After incubation the test solutions in the wells were discarded. • 4. Cells were trypsinized and 20 μl of cell suspension was taken for viability counting. • 5. To this 20 μl of trypan blue dye was added and mixed well. • 6. The mixture was then loaded to haemocytometer at the end of the notch with the help of pipette. • 7. Haemocytometer was kept under the inverted microscope and scored in each quadrant. • 8. Cell counting wad done according to Neubauer's rules and noted. Percentage cell viability was calculated for the obtained data using below given formulae.
Viable cells=Average viable cells*2*10^3 cells/100 μl
% Viability=Viable cells/Total cells×100

[7] = read-out: % Mean Cell Inhibition

Cc1cc(=O)cco1 (single isomer, unassigned) [SA1 (peak 5), 2-methyl-4H-pyran-4-one] was tested, and the “% Control Growth” value ([1]; 10^−4M, Average Values) was 65.2%, the “% Control Growth” value ([1]; 10^−4M, Experiment 1) was 64.0% and the “% Control Growth” value ([1]; 10^−4M, Experiment 2) was 65.1%. For the same compound, the “% Control Growth” value ([1]; 10^−4M, Experiment 3) was 66.6%, the “% Control Growth” value ([1]; 10^−5M, Average Values) was 81.9% and the “% Control Growth” value ([1]; 10^−5M, Experiment 1) was 86.4%. For the same compound, the “% Control Growth” value ([1]; 10^−5M, Experiment 2) was 78.3%, the “% Control Growth” value ([1]; 10^−5M, Experiment 3) was 81.1% and the “% Control Growth” value ([1]; 10^−6M, Average Values) was 79.1%. For the same compound, the “% Control Growth” value ([1]; 10^−6M, Experiment 1) was 83.6%, the “% Control Growth” value ([1]; 10^−6M, Experiment 2) was 77.7% and the “% Control Growth” value ([1]; 10^−6M, Experiment 3) was 75.9%. The “% Control Growth” value ([1]; 10^−7M, Average Values) was 79.7%, the “% Control Growth” value ([1]; 10^−7M, Experiment 1) was 80.8% and the “% Control Growth” value ([1]; 10^−7M, Experiment 2) was 80.6%. For the same compound, the “% Control Growth” value ([1]; 10^−7M, Experiment 3) was 77.6%, the “% Control Growth” value ([2]; 10^−4M, Average Values) was 35.0% and the “% Control Growth” value ([2]; 10^−4M, Experiment 1) was 43.7%. For the same compound, the “% Control Growth” value ([2]; 10^−4M, Experiment 2) was 27.1%, the “% Control Growth” value ([2]; 10^−4M, Experiment 3) was 34.3% and the “% Control Growth” value ([2]; 10^−5M, Average Values) was 58.6%. For the same compound, the “% Control Growth” value ([2]; 10^−5M, Experiment 1) was 75.2%, the “% Control Growth” value ([2]; 10^−5M, Experiment 2) was 44.0% and the “% Control Growth” value ([2]; 10^−5M, Experiment 3) was 56.4%. The “% Control Growth” value ([2]; 10^−6M, Average Values) was 75.4%, the “% Control Growth” value ([2]; 10^−6M, Experiment 1) was 90.3% and the “% Control Growth” value ([2]; 10^−6M, Experiment 2) was 69.9%. The “% Control Growth” value ([2]; 10^−6M, Experiment 3) was 66.1%, the “% Control Growth” value ([2]; 10^−7M, Average Values) was 60.8% and the “% Control Growth” value ([2]; 10^−7M, Experiment 1) was 75.4%. For the same compound, the “% Control Growth” value ([2]; 10^−7M, Experiment 2) was 50.9%, the “% Control Growth” value ([2]; 10^−7M, Experiment 3) was 56.0% and the GI50 ([3]; Homo sapiens, MIA PaCa-2, Molar drug concentrations calculated from graph) was 0.00108 µg/mL (≈ 0.00984 µM). The “% Control Growth” value ([3]; 10^−4M, Average Values) was 49.2%, the “% Control Growth” value ([3]; 10^−4M, Experiment 1) was 30.0% and the “% Control Growth” value ([3]; 10^−4M, Experiment 2) was 63.5%. The “% Control Growth” value ([3]; 10^−4M, Experiment 3) was 54.2%, the “% Control Growth” value ([3]; 10^−5M, Average Values) was 108.5% and the “% Control Growth” value ([3]; 10^−5M, Experiment 1) was 97.0%. For the same compound, the “% Control Growth” value ([3]; 10^−5M, Experiment 2) was 112.7%, the “% Control Growth” value ([3]; 10^−5M, Experiment 3) was 115.9% and the “% Control Growth” value ([3]; 10^−6M, Average Values) was 113.4%. The “% Control Growth” value ([3]; 10^−6M, Experiment 1) was 111.0%, the “% Control Growth” value ([3]; 10^−6M, Experiment 2) was 116.4% and the “% Control Growth” value ([3]; 10^−6M, Experiment 3) was 112.6%. The “% Control Growth” value ([3]; 10^−7M, Average Values) was 105.7%, the “% Control Growth” value ([3]; 10^−7M, Experiment 1) was 108.1% and the “% Control Growth” value ([3]; 10^−7M, Experiment 2) was 95.5%. For the same compound, the “% Control Growth” value ([3]; 10^−7M, Experiment 3) was 113.5%, the TGI ([3]; Molar drug concentrations calculated from graph) was 0.7992 µg/mL (≈ 7.26 µM) and the TGI [4] was 4.03 µg/mL (≈ 36.6 µM).

Compound COc1cccc2c1C(=O)c1c(O)c3c(c(O)c1C2=O)C[C@@](O)(C(=O)CO)C[C@@H]3O[C@H]1C[C@H](N)[C@H](O)[C@H](C)O1 [Doxorubicin] has an inhibition at 1.563 µM (A549 cell line [5]; n = 1, read-out: % Inhibition) of 17.3%, an inhibition at 1.563 µM (A549 cell line [5]; n = 2, read-out: % Inhibition) of 19.6% and an inhibition at 1.563 µM (A549 cell line [5]; n = 3, read-out: % Inhibition) of 18.4%. The inhibition at 1.563 µM (A549 cell line [5]; [7]) was 18.4%, the inhibition at 3.125 µM (A549 cell line [5]; n = 1, read-out: % Inhibition) was 27.8% and the inhibition at 3.125 µM (A549 cell line [5]; n = 2, read-out: % Inhibition) was 25.6%. For the same compound, the inhibition at 3.125 µM (A549 cell line [5]; n = 3, read-out: % Inhibition) was 24.7%, the inhibition at 3.125 µM (A549 cell line [5]; [7]) was 26.1% and the inhibition at 6.25 µM (A549 cell line [5]; n = 1, read-out: % Inhibition) was 36.3%. For the same compound, the inhibition at 6.25 µM (A549 cell line [5]; n = 2, read-out: % Inhibition) was 35.9%, the inhibition at 6.25 µM (A549 cell line [5]; n = 3, read-out: % Inhibition) was 37.4% and the inhibition at 6.25 µM (A549 cell line [5]; [7]) was 36.5%. It also gave an inhibition at 12.5 µM (A549 cell line [5]; n = 1, read-out: % Inhibition) of 45.4%, an inhibition at 12.5 µM (A549 cell line [5]; n = 2, read-out: % Inhibition) of 44.2% and an inhibition at 12.5 µM (A549 cell line [5]; n = 3, read-out: % Inhibition) of 45.8%. The inhibition at 12.5 µM (A549 cell line [5]; [7]) was 45.1%, the inhibition at 25 µM (A549 cell line [5]; n = 1, read-out: % Inhibition) was 64.5% and the inhibition at 25 µM (A549 cell line [5]; n = 2, read-out: % Inhibition) was 65.2%. For the same compound, the inhibition at 25 µM (A549 cell line [5]; n = 3, read-out: % Inhibition) was 65.2%, the inhibition at 25 µM (A549 cell line [5]; [7]) was 65% and the inhibition at 50 µM (A549 cell line [5]; n = 1, read-out: % Inhibition) was 75.5%. The inhibition at 50 µM (A549 cell line [5]; n = 2, read-out: % Inhibition) was 74.4%, the inhibition at 50 µM (A549 cell line [5]; n = 3, read-out: % Inhibition) was 78.2% and the inhibition at 50 µM (A549 cell line [5]; [7]) was 76%. For the same compound, the inhibition at 100 µM (A549 cell line [5]; n = 1, read-out: % Inhibition) was 87.9%, the inhibition at 100 µM (A549 cell line [5]; n = 2, read-out: % Inhibition) was 90.3% and the inhibition at 100 µM (A549 cell line [5]; n = 3, read-out: % Inhibition) was 89.2%. It also gave an inhibition at 100 µM (A549 cell line [5]; [7]) of 89.2%, an IC50 (A549 cell line [5]; A549, MTT, 24 h) of 20.3 µM and a viability at 1.563 µM (A549 cell line [6]; 1.563 μM) of 85.5%. For the same compound, the viability at 3.125 µM (A549 cell line [6]; 3.125 μM) was 74.5%, the viability at 6.25 µM (A549 cell line [6]; 6.25 μM) was 66.1% and the viability at 12.5 µM (A549 cell line [6]; 12.5 μM) was 51.6%. It also gave a viability at 25 µM (A549 cell line [6]; 25 μM) of 36.5%, a viability at 50 µM (A549 cell line [6]; 50 μM) of 26.2% and a viability at 100 µM (A549 cell line [6]; 100 μM) of 11.1%.
